Measured values from paper PMC8122087 (Cell, 2021).
pEC50: −log10 of the molar value. “Also recorded” adds a separate entry of the source. Counter-ions that a name gives are not always drawn. Like-named read-outs stand apart in the source and are kept apart here.

Tests used:
[1] = system: endogenous 5-HT release (psychLight2 response); design: species or system mouse; details: electrical stimulation, incubation with 50 μM
[2] = target: T1, psychLight2 (PSYLI2 cells) (Homo sapiens, UniProt P28223, DEL264-312/E264Q/I181A/I315S/INS316[…]/S314L); format: cell-based
T1 sequence (P28223 1-471 with tags or gaps with the stated changes): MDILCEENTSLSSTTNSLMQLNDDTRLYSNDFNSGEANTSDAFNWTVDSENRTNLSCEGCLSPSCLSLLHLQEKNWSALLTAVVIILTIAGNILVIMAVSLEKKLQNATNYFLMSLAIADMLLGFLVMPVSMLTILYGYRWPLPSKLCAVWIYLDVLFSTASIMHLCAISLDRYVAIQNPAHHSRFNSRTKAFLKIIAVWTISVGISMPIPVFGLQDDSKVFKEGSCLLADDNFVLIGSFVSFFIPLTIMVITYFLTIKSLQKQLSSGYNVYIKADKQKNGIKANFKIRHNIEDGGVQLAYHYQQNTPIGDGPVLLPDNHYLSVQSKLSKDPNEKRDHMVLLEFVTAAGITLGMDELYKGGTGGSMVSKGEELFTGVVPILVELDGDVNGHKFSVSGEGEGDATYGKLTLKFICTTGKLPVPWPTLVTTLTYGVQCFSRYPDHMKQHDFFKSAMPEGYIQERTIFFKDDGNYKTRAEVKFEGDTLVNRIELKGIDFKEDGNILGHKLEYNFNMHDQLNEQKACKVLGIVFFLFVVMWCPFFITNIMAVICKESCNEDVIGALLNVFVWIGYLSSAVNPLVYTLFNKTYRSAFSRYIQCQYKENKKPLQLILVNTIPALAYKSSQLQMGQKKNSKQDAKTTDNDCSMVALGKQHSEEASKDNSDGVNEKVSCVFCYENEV

[3] = system: VMAT2 heterozygous (VMAT2-HET) and WT mice; assay: Sucrose preference test; format: in vivo, mouse; details: 15 mg/kg i.p., single administration
locomotion = assay: Locomotion assay; format: in vivo, mouse; details: C57BL/6J mice, i.p., n = 4 mice
head-twitch response = assay: Head-twitch response; format: in vivo, mouse
[4] = system: cultured rat embryonic cortical neurons; assay: Dendritogenesis in cultured rat embryonic cortical neurons; format: cell-based; details: Sholl analysis, Nmax
C57BL/6J mice = assay: Forced swim test; format: in vivo, mouse
[5] = target: psychLight1 (human 5-HT2AR-based fluorescent sensor) (Homo sapiens, UniProt P28223, DEL264-312/E264Q/I181A/I315S/INS316[…]/S314L); format: cell-based
psychLight1 (human 5-HT2AR-based fluorescent sensor), sequence (P28223 1-471 with tags or gaps with the stated changes): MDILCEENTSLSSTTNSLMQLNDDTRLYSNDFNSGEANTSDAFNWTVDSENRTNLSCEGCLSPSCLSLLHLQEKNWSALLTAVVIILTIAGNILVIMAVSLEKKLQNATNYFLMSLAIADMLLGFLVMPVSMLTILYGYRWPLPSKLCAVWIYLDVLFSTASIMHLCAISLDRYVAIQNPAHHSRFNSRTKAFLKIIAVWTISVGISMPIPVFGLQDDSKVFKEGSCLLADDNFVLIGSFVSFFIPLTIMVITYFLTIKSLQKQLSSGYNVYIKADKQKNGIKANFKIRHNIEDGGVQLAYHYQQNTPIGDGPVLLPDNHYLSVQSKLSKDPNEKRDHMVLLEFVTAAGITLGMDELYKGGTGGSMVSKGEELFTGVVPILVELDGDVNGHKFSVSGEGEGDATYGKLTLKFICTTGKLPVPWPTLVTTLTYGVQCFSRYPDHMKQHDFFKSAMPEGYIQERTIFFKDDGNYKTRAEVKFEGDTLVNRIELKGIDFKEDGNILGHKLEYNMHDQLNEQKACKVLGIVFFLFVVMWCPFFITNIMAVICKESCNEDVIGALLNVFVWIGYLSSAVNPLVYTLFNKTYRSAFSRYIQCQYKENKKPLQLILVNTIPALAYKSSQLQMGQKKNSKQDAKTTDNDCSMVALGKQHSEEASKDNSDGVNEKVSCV

psychLight2 [6] = target: psychLight2 (Homo sapiens, UniProt P28223, DEL264-312/E264Q/I181A/I315S/INS316[…]/S314L); details: mouse
[7] = target: psychLight2 (HEK293T cell line stably expressing psychLight2, PSYLI2) (Homo sapiens, UniProt P28223, DEL264-312/E264Q/I181A/I315S/INS316[…]/S314L); assay: PSYLI2 high-content imaging assay, agonist mode; format: cell-based
psychLight2 [8] = format: cell-based, mouse
[9] = target: T1, psychLight2 (PSYLI2 cells); format: cell-based; remark: listed apart in the source
[10] = C57BL/6J mice, i.p., dose-response, n = 4 mice
[11] = 10 μM compound treatment (Fig. 4C)

For `CN(C)CCC[C@@]1(c2ccc(F)cc2)OCc2cc(C#N)ccc21` [escitalopram], the “amplitude of the psychLight2 response ΔF/F” value [1] was 18.4 ± 4.3%.
With `COC(=O)[C@@H]1C[C@H](OC(C)=O)C(=O)[C@H]2[C@@]1(C)CC[C@H]1C(=O)O[C@H](c3ccoc3)C[C@]21C` [salvinorin A] the ligand score [2] was ~0.
With `COc1ccc2c(ccn2C[C@@H](C)N(C)C)c1` [AAZ-A-154] the “sucrose preference in WT mice” value [3] was “did not modify sucrose preference in the WT animals”, the “sucrose preference in VMAT2-HET mice” value ([3]; 1% sucrose) was “exhibited a sucrose preference that was indistinguishable from WT controls” and the “persistence of anti-anhedonic effect” value ([3]; VMAT2-HET mice) was “at least 12 days”. For the same compound, the locomotion (locomotion) was “only decreases locomotion at a very high dose (100 mg/kg)”, the head-twitch response (head-twitch response; [10]) was “failed to produce any head-twitches, even up to doses as high as 100 mg/kg” and the dendritic arbor complexity [4] was “increases dendritic arbor complexity to a comparable extent as the fast-acting antidepressant ketamine”. The “immobility in the forced swim test” value (C57BL/6J mice; 20 mg/kg i.p., single administration, n = 12) was “decreased immobility” and the “onset and duration of antidepressant-like effects in FST” value (C57BL/6J mice; mouse, in vivo) was “both rapid (30 min) and long-lasting (1 week) antidepressant-like effects”.
`CN(C)CCc1c[nH]c2ccc(Cl)cc12` [5-Cl-DMT, 5-chloro-N,N-dimethyltryptamine] was tested, and the ligand score [2] was “positive” and the head-twitch response (head-twitch response; [10]) was “produced robust HTRs”.
For `O=C(c1ccc(F)cc1)C1CCN(CCn2c(=O)[nH]c3ccccc3c2=O)CC1` [ketanserin], the “competition with / block of 5-HT-induced activation of psychLight” value [5] was “able to block 5-HT-induced activation of psychLight”, the “effect on psychLight1 fluorescence” value [5] was “either had minimal effect on psychLight1 fluorescence or slightly quenched the sensor” and the “psychLight1 fluorescence response (ΔF/F)” value [5] was −1.7 ± 0.3%. The “psychLight2 fluorescence in vivo” value (psychLight2 [6]) was “decreased”, the PSYLI2 response [7] was −12.7 ± 0.5% and the “psychLight2 fluorescence response (ΔF/F)” value [7] was −3.5 ± 1.6%.
For `CP(C)C.F[P-](F)(F)(F)(F)F.F[P-](F)(F)(F)(F)F.NCCc1c[nH]c2ccc(O)cc12.[Ru+2].c1ccc(-c2ccccn2)nc1.c1ccc(-c2ccccn2)nc1` [RuBi–5-HT], the Tauoff (psychLight2 [8]) was 5.4 ± 0.9 ms and the “peak ΔpL2/tdT normalized to baseline” value (psychLight2 [8]) was 111.2 ± 0.7%.
In the case of `CN(C)CCc1c[nH]c2ccc(Br)cc12` [5-Br-DMT, 5-bromo-N,N-dimethyltryptamine], the ligand score [2] was “negative” and the head-twitch response (head-twitch response; [10]) was “failed to induce HTRs at any dose”.
In the case of `NCCc1c[nH]c2ccc(O)cc12` [5-HT, serotonin], the “psychLight1 fluorescence response (ΔF/F)” value [5] was 77.3 ± 2.4%, the ΔpL2/tdT (psychLight2 [8]) was 111.1 ± 1.8% and the “PSYLI2 fluorescence ΔF/F” value [7] was 46.3 ± 1.4%. The PSYLI2 response [7] was 44.8 ± 0.8% and the “psychLight2 fluorescence response (ΔF/F)” value [7] was 38.2 ± 2.4%.
For `CN(C)CCc1c[nH]c2ccc(O)cc12` [BUFO, N,N-dimethylserotonin], the “PSYLI2 fluorescence ΔF/F” value [7, 11] was 22.3 ± 2.8%.
`c1ccc(C2(N3CCCCC3)CCCCC2)cc1` [phencyclidine] showed a ligand score [2] of ~0.
With `COc1ccc2[nH]cc(CCN(C)C)c2c1` [5-MeO-DMT, 5-methoxy-N,N-dimethyltryptamine] the Emax [5] was 48.4%, the “psychLight1 fluorescence response (ΔF/F)” value [5] was 48.4 ± 3.1% and the “head-twitch response during fiber photometry” value (head-twitch response; 50 mg/kg, i.p., within 1 min of administration, n = 3 animals) was “concomitant increase in HTR”. For the same compound, the “psychLight2 fluorescence in vivo” value (psychLight2 [6]) was “sharp increase in fluorescence” and the “psychLight2 fluorescence response (ΔF/F)” value [7] was 24.1 ± 4.6%.
`COc1ccc2c(CCN(C)C)c[nH]c2c1` [6-MeO-DMT, 6-methoxy-N,N-dimethyltryptamine] was tested, and the “competition with / block of 5-HT-induced activation of psychLight” value [5] was “can compete off 5-HT resulting in a reduction in psychLight fluorescence; also recorded: capable of binding to the receptor despite lacking efficacy”, the “psychLight1 fluorescence response (ΔF/F)” value ([5]; 10 μM, confocal microscope, n = 3) was −1.1 ± 4.6% and the “psychLight2 fluorescence response (ΔF/F)” value ([7]; 10 μM, high content imager (Suppl. Fig. 3C)) was −3.0 ± 2.7%.
For `CN(C)CCc1c[nH]c2ccccc12` [DMT, N,N-dimethyltrytamine], the Emax [5] was 12.4% and the pEC50 ([5]; read-out: half maximal effective concentration (EC50)) was 6.20.
In the case of `CN(C)CCc1c[nH]c2ccc(F)cc12` [5-F-DMT, 5-flouo-N,N-dimethyltryptamine], the ligand score [2] was “positive” and the head-twitch response (head-twitch response; mouse, in vivo, ip) was “produced robust HTRs”.
For `NCCc1c[nH]c2ccccc12` [tryptamine], the “PSYLI2 fluorescence ΔF/F” value [7] was “produces a robust response”.
With `CN1CCc2cccc3c2[C@H]1Cc1ccc(O)c(O)c1-3` [apomorphine, R-(−)-apomorphine hydrochloride hemihydrate] the “Schild regression analysis (pA2)” value [9] was “potent psychLight competitive antagonists”.
With `CNCCc1c[nH]c2ccc(O)cc12` [N-5-HT, N-methylserotonin] the “PSYLI2 fluorescence ΔF/F” value [7, 11] was 24.6 ± 1.7%.
